Results on one compound are retold here after US20210322545A1 (priority 2016, published 2021).

The conditions of the series: mouse, in vivo.

As for `CN[C@@H](C)C(=O)N[C@H](C(=O)N1CCC[C@H]1c1nc(C(=O)c2ccc(F)cc2)cs1)C1CCCCC1` [LCL161], the “body weight in combination treatment cohort” value is reported as “fully recovered following the last treatment”.
